{"source": "patent US8951752B2", "about": "“N-demethyase genes and uses thereof” (priority 2011, dated 2015)", "key": {"NdmA-His6": {"biological_target": "T1, NdmA-His6 (Pseudomonas putida, UniProt H9N289)", "T1 construct": "made in house; host or cells: E. coli BL21(DE3)", "T1 sequence (H9N289 1-351)": "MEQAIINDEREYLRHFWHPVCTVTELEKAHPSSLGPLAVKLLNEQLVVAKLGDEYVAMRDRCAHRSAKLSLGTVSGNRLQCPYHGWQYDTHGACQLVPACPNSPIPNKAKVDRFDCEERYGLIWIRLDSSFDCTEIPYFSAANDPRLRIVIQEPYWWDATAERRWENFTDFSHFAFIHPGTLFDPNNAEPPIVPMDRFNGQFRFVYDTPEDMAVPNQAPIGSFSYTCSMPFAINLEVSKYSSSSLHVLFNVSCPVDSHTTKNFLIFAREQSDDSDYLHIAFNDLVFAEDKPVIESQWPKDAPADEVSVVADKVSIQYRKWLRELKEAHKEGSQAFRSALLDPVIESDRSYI", "assay": "Methylxanthine N-demethylase assay and kinetics, NdmA-His6 with His6-NdmD", "type": "biochemical, Pseudomonas putida CBB5", "experimental": "(§1) Methylxanthine N-demethylase activity assay contained, in 1-ml total volume, 0.5 mM methylxanthine, 1 mM NADH, 50 μM Fe(NH4)2(SO4)2, and an appropriate amount of NdmA-His6 or NdmB-His6 (7.4 μg-2.5 mg protein depending on substrate specificity) in 50 mM KPi buffer (pH 7.5). Approximately 4 U of partially purified reductase, prepared as described previously (Summers et al., 2011) or 59 U of purified His6-NdmD was added to reaction mixture. Catalase from bovine liver (4,000 U) was also added to reactions containing His6-NdmD. The reaction mixture was incubated at 30° C. with 300 rpm shaking on an incubating microplate shaker (VWR, Radnor, Pa.). Periodically, a small aliquot was sampled from the reaction mixture and mixed with equal volume of acetonitrile for quantifying concentrations of methylxanthines and N-demethylated products by HPLC. One unit of N-demethylase activity was defined as the consumption of one […] methylxanthine per minute.\n(§2) Apparent kinetic parameters of NdmA-His6 and NdmB-His6 were determined by measuring the initial rate of disappearance (vo) of methylxanthines in 50 mM KPi buffer (pH 7.5) at 30° C. The initial substrate concentrations (ESI) used in these experiments were from 25 to 500 μM. Substrates were incubated with His6-NdmD plus either NdmA-His6 or NdmB-His6 under standard conditions for 15 minutes. At 1, 5, 10, and 15 minutes, samples were removed from the reaction mixtures to quantitate substrate concentrations by HPLC. Plots of substrate concentrations against time were used to determine the initial rates of disappearance of substrates which were linear over 15 minutes. The apparent kinetic parameters were determined from Michaelis-Menten plots of vo against [S] fitted with the equation"}, "NdmB-His6": {"biological_target": "T2, NdmB-His6 (Pseudomonas putida, UniProt H9N290)", "T2 construct": "made in house; host or cells: E. coli BL21(DE3)", "T2 sequence (H9N290 1-355)": "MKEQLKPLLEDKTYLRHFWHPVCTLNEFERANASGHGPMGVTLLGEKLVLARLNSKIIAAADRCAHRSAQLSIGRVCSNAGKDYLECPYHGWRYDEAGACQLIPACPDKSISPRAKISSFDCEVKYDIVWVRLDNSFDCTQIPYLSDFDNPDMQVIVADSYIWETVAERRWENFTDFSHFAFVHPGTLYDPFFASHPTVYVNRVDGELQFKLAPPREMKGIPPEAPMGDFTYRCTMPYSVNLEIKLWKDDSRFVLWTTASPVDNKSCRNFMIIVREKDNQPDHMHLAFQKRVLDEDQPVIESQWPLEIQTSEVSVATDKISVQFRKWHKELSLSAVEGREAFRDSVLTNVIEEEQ", "assay": "Methylxanthine N-demethylase assay and kinetics, NdmB-His6 with His6-NdmD", "type": "biochemical, Pseudomonas putida CBB5", "conditions": "NdmB-His6", "experimental": "as §1, §2"}, "[1]": {"biological_target": "T3, Caffeine dehydrogenase (Cdh) from CBB1 (Pseudomonas sp., UniProt D7REY3)", "T3 sequence (D7REY3 1-791)": "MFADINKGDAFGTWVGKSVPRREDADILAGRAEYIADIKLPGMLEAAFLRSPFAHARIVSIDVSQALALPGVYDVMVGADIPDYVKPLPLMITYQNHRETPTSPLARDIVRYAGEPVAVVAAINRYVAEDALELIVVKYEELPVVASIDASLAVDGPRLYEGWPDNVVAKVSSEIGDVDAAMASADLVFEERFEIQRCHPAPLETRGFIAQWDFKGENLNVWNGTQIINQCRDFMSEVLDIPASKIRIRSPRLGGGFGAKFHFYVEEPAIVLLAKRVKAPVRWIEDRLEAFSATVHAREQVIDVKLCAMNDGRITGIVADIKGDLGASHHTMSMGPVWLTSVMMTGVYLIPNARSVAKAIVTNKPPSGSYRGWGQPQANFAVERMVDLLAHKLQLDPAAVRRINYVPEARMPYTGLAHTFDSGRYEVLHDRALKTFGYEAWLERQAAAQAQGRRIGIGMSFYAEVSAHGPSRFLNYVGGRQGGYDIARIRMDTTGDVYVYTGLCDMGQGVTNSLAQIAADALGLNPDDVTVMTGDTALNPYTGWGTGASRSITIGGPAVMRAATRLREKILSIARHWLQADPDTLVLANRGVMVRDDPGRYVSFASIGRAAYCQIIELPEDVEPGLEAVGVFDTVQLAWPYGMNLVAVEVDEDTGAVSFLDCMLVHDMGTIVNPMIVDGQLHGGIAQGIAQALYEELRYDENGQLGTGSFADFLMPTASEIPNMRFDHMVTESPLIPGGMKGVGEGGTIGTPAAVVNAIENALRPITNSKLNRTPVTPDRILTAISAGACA", "T3 sequence (D7REY4 1-295 partner)": "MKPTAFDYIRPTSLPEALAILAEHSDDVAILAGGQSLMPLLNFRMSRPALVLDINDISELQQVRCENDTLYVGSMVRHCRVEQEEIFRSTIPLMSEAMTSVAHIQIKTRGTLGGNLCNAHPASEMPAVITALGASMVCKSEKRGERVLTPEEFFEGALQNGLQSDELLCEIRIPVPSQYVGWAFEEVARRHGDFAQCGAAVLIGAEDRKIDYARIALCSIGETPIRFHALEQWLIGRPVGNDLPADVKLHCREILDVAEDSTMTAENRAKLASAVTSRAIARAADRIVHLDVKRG", "T3 sequence (D7REY5 1-167 partner)": "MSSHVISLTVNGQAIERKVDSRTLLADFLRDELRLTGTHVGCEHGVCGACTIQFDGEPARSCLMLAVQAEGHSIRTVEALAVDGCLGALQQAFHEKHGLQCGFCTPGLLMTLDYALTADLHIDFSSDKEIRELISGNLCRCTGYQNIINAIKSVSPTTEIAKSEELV", "conditions": "cited from earlier work"}}}
{"smiles": "Cn1cnc2c1c(=O)[nH]c(=O)n2C", "note": "[Theobromine, 3,7-dimethylxanthine]", "values": [{"measurement": "N-demethylase activity", "setting": "NdmA-His6; NdmA", "value": "inactive"}, {"measurement": "Km", "setting": "NdmA-His6; NdmA-His6, 30° C., pH 7.5, ∞ where no activity", "value": "∞"}, {"measurement": "Product", "setting": "NdmB-His6", "value": "7-methylxanthine"}, {"measurement": "N-demethylation by NdmC fraction", "setting": "NdmC", "value": "not N-demethylated"}, {"measurement": "preference as a substrate, times less than caffeine", "setting": "[1]", "value": 50, "unit": "times"}]}
